Experiments:
Assay in all cases: relative viability (nuclei count vs DMSO), 5 days (fraction); higher = more cells survive
[1] = compound: CC1=CC=C(C=C1)C(=O)CN2C3=C(CCCC3)SC2=N [Pifithrin_alpha] + CS(=O)(=O)N1CCN(Cc2cc3nc(-c4cccc5[nH]ncc45)nc(N4CCOCC4)c3s2)CC1 [Pictilisib] (partner 1 µM)
In short: (§1)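 A single step with final 0.05% Triton X-100, 1% formaldehyde and 1 ug/ml Hoechst fixed the cells and stained nuclei 5 days after treatment. Lung cancer cell lines in 1536-well plates had been treated by pin tool the day after seeding with one drug alone or a fixed anchor-drug dose plus five library-drug doses (not always all listed) in √10 steps, and nuclei were counted on 4× images. Relative viability is the ratio of nuclei in treated wells to nuclei in vehicle wells, taken as the median of duplicate plates.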

Bemcentinib + Trametinib = compound: Nc1nc(Nc2ccc3c(c2)CC[C@@H](N2CCCC2)CC3)nn1-c1cc2c(nn1)-c1ccccc1CCC2 [Bemcentinib] + CC(=O)Nc1cccc(-n2c(=O)n(C3CC3)c(=O)c3c(Nc4ccc(I)cc4F)n(C)c(=O)c(C)c32)c1 [Trametinib] (partner 0.02 µM)
In short: as §1

[2] = compound: Nc1nc(Nc2ccc3c(c2)CC[C@@H](N2CCCC2)CC3)nn1-c1cc2c(nn1)-c1ccccc1CCC2 [Bemcentinib] + CC(=O)c1c(C)c2cnc(Nc3ccc(N4CCNCC4)cn3)nc2n(C2CCCC2)c1=O [Palbociclib] (partner 0.5 µM)
In short: as §1

Bemcentinib + AZD7762 = compound: Nc1nc(Nc2ccc3c(c2)CC[C@@H](N2CCCC2)CC3)nn1-c1cc2c(nn1)-c1ccccc1CCC2 [Bemcentinib] + NC(=O)Nc1cc(-c2cccc(F)c2)sc1C(=O)N[C@H]1CCCNC1 [AZD7762] (partner 0.2 µM)
In short: as §1

| Cell Line | relative viability ([1]; first compound 1 µM) | relative viability ([1]; first compound 3.162 µM) | relative viability ([1]; first compound 10 µM) | relative viability ([1]; first compound 31.62 µM) | relative viability ([1]; first compound 100 µM) | relative viability (Bemcentinib + Trametinib; first compound 0.04 µM) | relative viability (Bemcentinib + Trametinib; first compound 0.1265 µM) | relative viability (Bemcentinib + Trametinib; first compound 0.4 µM) | relative viability (Bemcentinib + Trametinib; first compound 1.265 µM) | relative viability (Bemcentinib + Trametinib; first compound 4 µM) | relative viability ([2]; first compound 0.04 µM) | relative viability ([2]; first compound 0.1265 µM) | relative viability ([2]; first compound 0.4 µM) | relative viability ([2]; first compound 1.265 µM) | relative viability ([2]; first compound 4 µM) | relative viability (Bemcentinib + AZD7762; first compound 0.04 µM) | relative viability (Bemcentinib + AZD7762; first compound 0.1265 µM) | relative viability (Bemcentinib + AZD7762; first compound 0.4 µM) | relative viability (Bemcentinib + AZD7762; first compound 1.265 µM) | relative viability (Bemcentinib + AZD7762; first compound 4 µM) |
| --- | --- | --- | --- | --- | --- | --- | --- | --- | --- | --- | --- | --- | --- | --- | --- | --- | --- | --- | --- | --- |
| 201T | 0.603 | 0.525 | 0.52 | 0.53 | 0.551 | 0.731 | 0.778 | 0.744 | 0.743 | 0.734 | 0.333 | 0.314 | 0.392 | 0.363 | 0.389 | 0.643 | 0.668 | 0.605 | 0.611 | 0.625 |
| A549 | 0.703 | 0.586 | 0.435 | 0.434 | 0.342 | – | – | – | – | – | – | – | – | – | – | – | – | – | – | – |
| A-427 | 0.722 | 0.629 | 0.666 | 0.522 | 0.657 | 0.711 | 0.696 | 0.812 | 0.773 | 0.668 | 0.55 | 0.515 | 0.534 | 0.532 | 0.532 | 0.75 | 0.856 | 0.746 | 0.63 | 0.637 |
| ABC-1 | 0.273 | 0.745 | 0.735 | 0.429 | 0.437 | – | – | – | – | – | 0.532 | 0.825 | 0.654 | 0.655 | 0.639 | – | 0.937 | 0.799 | 0.816 | 1.09 |
| BEN | 0.445 | 0.576 | 0.64 | 0.618 | 0.543 | 1.01 | 1.18 | 1.21 | 1.04 | 1.03 | 0.488 | 0.498 | 0.464 | 0.432 | 0.514 | 0.554 | 0.637 | 0.638 | 0.674 | 0.634 |
| CAL-12T | 0.415 | 0.385 | 0.348 | 0.347 | 0.331 | 0.347 | 0.321 | 0.302 | 0.339 | 0.372 | 0.3 | 0.59 | 0.47 | 0.489 | 0.45 | 0.654 | 0.757 | 0.618 | 0.636 | 0.485 |
| COR-L23 | 0.736 | 0.75 | 0.731 | – | 0.695 | 0.569 | 0.696 | 0.66 | 0.641 | 0.658 | 0.304 | 0.316 | 0.275 | 0.382 | 0.31 | – | – | – | – | – |
| COR-L 105 | 0.324 | 0.377 | 0.415 | 0.33 | 0.458 | 0.453 | 0.48 | 0.458 | 0.39 | 0.377 | 0.385 | 0.381 | 0.412 | 0.377 | 0.396 | – | – | – | – | – |
| Calu-6 | 1 | 0.907 | 0.816 | 0.546 | 0.644 | – | – | – | – | – | – | – | – | – | – | – | – | – | – | – |
| ChaGo-K-1 | 0.431 | 0.653 | 0.631 | 0.473 | 0.559 | 0.911 | 0.945 | 0.939 | 0.877 | 0.902 | 0.963 | 0.953 | 1.02 | 0.954 | 0.938 | 0.838 | 0.976 | 0.919 | 0.907 | 0.958 |
| EBC-1 | 0.261 | 0.224 | 0.237 | 0.198 | 0.214 | – | – | – | – | – | – | – | – | – | – | – | – | – | – | – |
| EKVX | 0.328 | 0.283 | 0.281 | 0.235 | 0.214 | 0.32 | 0.372 | 0.351 | 0.491 | 0.34 | 0.333 | 0.362 | 0.427 | 0.427 | 0.405 | 0.623 | 0.719 | 0.759 | 0.723 | 0.717 |
| EMC-BAC-2 | 0.511 | 0.566 | 0.55 | 0.456 | 0.545 | 0.874 | 0.896 | 0.873 | 0.897 | 0.967 | 0.519 | 0.556 | 0.507 | 0.513 | 0.519 | 1.14 | 1.11 | 1.14 | 1.02 | 1.06 |
| EPLC-272H | – | 0.319 | 0.35 | 0.255 | 0.248 | 0.268 | 0.287 | 0.329 | 0.289 | 0.295 | 0.287 | 0.309 | 0.361 | 0.302 | 0.34 | 0.236 | 0.162 | 0.186 | 0.168 | 0.197 |
| H3255 | 0.432 | 0.612 | 0.497 | 0.35 | 0.491 | – | 0.749 | 0.696 | 0.674 | 0.706 | 0.283 | 0.305 | 0.297 | 0.275 | 0.334 | 0.814 | 0.887 | 0.874 | 0.773 | 0.839 |
| HARA | 0.335 | 0.275 | 0.4 | 0.234 | 0.251 | 0.769 | 0.83 | 0.69 | 0.67 | 0.96 | 0.211 | 0.252 | 0.215 | 0.314 | 0.243 | 0.326 | 0.26 | 0.345 | 0.185 | 0.258 |
| HCC-15 | 0.691 | 0.754 | 0.673 | 0.458 | 0.715 | 0.389 | 0.365 | 0.44 | 0.368 | 0.42 | 0.767 | 0.976 | 0.739 | 0.728 | 0.737 | 1.22 | 1.4 | 1.19 | 1.26 | 1.38 |
| HCC-44 | 0.433 | 0.475 | 0.539 | 0.408 | 0.423 | 1.11 | 1.13 | 1.06 | 1.18 | 1.18 | 1.02 | 1.03 | 0.96 | 1.01 | 1.1 | 1.07 | 1.05 | 1.01 | 1.08 | 1.04 |
| HCC-78 | 0.134 | 0.218 | 0.174 | – | 0.196 | 0.735 | 0.746 | 0.936 | 0.809 | 0.801 | 0.461 | 0.455 | 0.438 | 0.409 | 0.48 | 0.633 | 0.717 | 0.556 | 0.672 | 0.614 |

— the supplement of paper PMC10307832
